Common to all, as to assay: Glasshouse assay for herbicidal activity (pre- and post-emergence), percentage phytotoxicity
Common to all, as to assay type: in vivo

Assay [1] deals with Alopecurus myosuroides (ALOMY). As to conditions: Alopecurus myosuroides. The gist of the method: (§1)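 Pot-grown, standard soil. PRE: spray 1 d post-sowing; POST: ~12 d. Glasshouse 24/18 °C (warm spp.) / 20/16 °C (cool spp.), 16 h light, 65% RH, watered 2×/day. Visual % damage, 20 DAA PRE, 15 DAA POST.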
The subject of assay [2] is Avena fatua (AVEFA). As to conditions: Avena fatua. An outline of the steps: as §1
The test system of assay [3] is Echinochloa crus-galli (ECHCG). The settings on record: Echinochloa crus-galli. An outline of the steps:
as §1

In assay [4] the test system is Lolium perenne (LOLPE). As to conditions: Lolium perenne. An outline of the steps:
as §1

Setting [5] is: post-emergence, 360 h, 250 g/ha, post-emergence, 15 DAA, visual assessment (100%=total damage, 0%=no damage), read-out: Post-emergence herbicidal activity (percentage phytotoxicity) ALOMY POST.
[6] abbreviates: pre-emergence, 480 h, 250 g/ha, pre-emergence, 20 DAA, visual assessment (100%=total damage, 0%=no damage), read-out: Pre-emergence herbicidal activity (percentage phytotoxicity) ALOMY PRE.
Where [7] appears, read: post-emergence, 360 h, 250 g/ha, post-emergence, 15 DAA, visual assessment (100%=total damage, 0%=no damage), read-out: Post-emergence herbicidal activity (percentage phytotoxicity) AVEFA POST.
Where [8] appears, read: pre-emergence, 480 h, 250 g/ha, pre-emergence, 20 DAA, visual assessment (100%=total damage, 0%=no damage), read-out: Pre-emergence herbicidal activity (percentage phytotoxicity) AVEFA PRE.
The mark [9] stands for this setting: post-emergence, 360 h, 250 g/ha, post-emergence, 15 DAA, visual assessment (100%=total damage, 0%=no damage), read-out: Post-emergence herbicidal activity (percentage phytotoxicity) ECHCG POST.
Where [10] appears, read: pre-emergence, 480 h, 250 g/ha, pre-emergence, 20 DAA, visual assessment (100%=total damage, 0%=no damage), read-out: Pre-emergence herbicidal activity (percentage phytotoxicity) ECHCG PRE.
The mark [11] stands for this setting: post-emergence, 360 h, 250 g/ha, post-emergence, 15 DAA, visual assessment (100%=total damage, 0%=no damage), read-out: Post-emergence herbicidal activity (percentage phytotoxicity) LOLPE POST.
Where [12] appears, read: pre-emergence, 480 h, 250 g/ha, pre-emergence, 20 DAA, visual assessment (100%=total damage, 0%=no damage), read-out: Pre-emergence herbicidal activity (percentage phytotoxicity) LOLPE PRE.
Setting [13] is: post-emergence, 360 h, POST-emergence, rate 250 g/ha, visual score 15 DAA (100%=total damage, 0%=no damage), read-out: Post-emergence herbicidal activity (percentage phytotoxicity) ALOMY POST.
The mark [14] stands for this setting: pre-emergence, 480 h, PRE-emergence, rate 250 g/ha, visual score 20 DAA (100%=total damage, 0%=no damage), read-out: Pre-emergence herbicidal activity (percentage phytotoxicity) ALOMY PRE.
[15] abbreviates: post-emergence, 360 h, POST-emergence, rate 250 g/ha, visual score 15 DAA (100%=total damage, 0%=no damage), read-out: Post-emergence herbicidal activity (percentage phytotoxicity) AVEFA POST.
Where [16] appears, read: pre-emergence, 480 h, PRE-emergence, rate 250 g/ha, visual score 20 DAA (100%=total damage, 0%=no damage), read-out: Pre-emergence herbicidal activity (percentage phytotoxicity) AVEFA PRE.
The mark [17] stands for this setting: post-emergence, 360 h, POST-emergence, rate 250 g/ha, visual score 15 DAA (100%=total damage, 0%=no damage), read-out: Post-emergence herbicidal activity (percentage phytotoxicity) ECHCG POST.
[18] abbreviates: pre-emergence, 480 h, PRE-emergence, rate 250 g/ha, visual score 20 DAA (100%=total damage, 0%=no damage), read-out: Pre-emergence herbicidal activity (percentage phytotoxicity) ECHCG PRE.
Setting [19] is: post-emergence, 360 h, POST-emergence, rate 250 g/ha, visual score 15 DAA (100%=total damage, 0%=no damage), read-out: Post-emergence herbicidal activity (percentage phytotoxicity) LOLPE POST.
The mark [20] stands for this setting: pre-emergence, 480 h, PRE-emergence, rate 250 g/ha, visual score 20 DAA (100%=total damage, 0%=no damage), read-out: Pre-emergence herbicidal activity (percentage phytotoxicity) LOLPE PRE.

Read-outs that look alike come from different tables or passages of the source.

For the compound `Cc1cc(-n2cc(Cl)c(C)n2)cc(C)c1C1C(=O)CC(CC(=O)NC(C)(C)C)C1=O` (stereo not shown) [Compound B105], the pest or weed control at 250 g/ha was found to be 70% in assay [1] (setting [5]); 70% in assay [1] (setting [6]); 60% in assay [2] (setting [7]); 20% in assay [2] (setting [8]); 100% in assay [3] (setting [9]); 100% in assay [3] (setting [10]). For the same compound, the figures for the pest or weed control at 250 g/ha in assay [4] (setting [11]) and in assay [4] (setting [12]) were 60% and 70%, respectively.
For the compound `C#CCNC(=O)CC1CC(=O)C(c2c(C)cc(C#CC)cc2C)C1=O` (stereo not shown) [Compound A28], the pest or weed control at 250 g/ha in assay [1] (post-emergence, 360 h, Rate 250 g/ha, post-emergence, assessed visually 15 DAA, 100%=total damage, 0%=no damage, read-out: Post-emergence herbicidal activity (percentage phytotoxicity) ALOMY POST) amounted to 100%; in assay [1] (pre-emergence, 480 h, Rate 250 g/ha, pre-emergence, assessed visually 20 DAA, 100%=total damage, 0%=no damage, read-out: Pre-emergence herbicidal activity (percentage phytotoxicity) ALOMY PRE), 100%; in assay [2] (post-emergence, 360 h, Rate 250 g/ha, post-emergence, assessed visually 15 DAA, 100%=total damage, 0%=no damage, read-out: Post-emergence herbicidal activity (percentage phytotoxicity) AVEFA POST), 100%; in assay [2] (pre-emergence, 480 h, Rate 250 g/ha, pre-emergence, assessed visually 20 DAA, 100%=total damage, 0%=no damage, read-out: Pre-emergence herbicidal activity (percentage phytotoxicity) AVEFA PRE) it was 100%; in assay [3] (post-emergence, 360 h, Rate 250 g/ha, post-emergence, assessed visually 15 DAA, 100%=total damage, 0%=no damage, read-out: Post-emergence herbicidal activity (percentage phytotoxicity) ECHCG POST), 100%; in assay [3] (pre-emergence, 480 h, Rate 250 g/ha, pre-emergence, assessed visually 20 DAA, 100%=total damage, 0%=no damage, read-out: Pre-emergence herbicidal activity (percentage phytotoxicity) ECHCG PRE), 90%. The pest or weed control at 250 g/ha amounted to 100% in assay [4] (post-emergence, 360 h, Rate 250 g/ha, post-emergence, assessed visually 15 DAA, 100%=total damage, 0%=no damage, read-out: Post-emergence herbicidal activity (percentage phytotoxicity) LOLPE POST) and 90% in assay [4] (pre-emergence, 480 h, Rate 250 g/ha, pre-emergence, assessed visually 20 DAA, 100%=total damage, 0%=no damage, read-out: Pre-emergence herbicidal activity (percentage phytotoxicity) LOLPE PRE).
Regarding `CCc1cc(C)cc(C)c1C1C(=O)CC(CC(=O)NCc2ccc(C#N)cc2)C1=O` (stereo not shown) [Compound B254], the pest or weed control at 250 g/ha in assay [1] (setting [13]) was 100%; in assay [1] (setting [14]), 90%; in assay [2] (setting [15]) it was 100%; in assay [2] (setting [16]), 90%; in assay [3] (setting [17]), 100%; in assay [3] (setting [18]), 100%. Besides, the results for the pest or weed control at 250 g/ha in assay [4] (setting [19]) and in assay [4] (setting [20]) were 100% and 90%, respectively.
As to `COCC(C)NC(=O)CC1CC(=O)C(c2c(C)cc(-c3ncc(Cl)cn3)cc2C)C1=O` (stereo not shown) [Compound B346], the pest or weed control at 250 g/ha came to 100% in assay [1] (post-emergence, 360 h, Rate 250 g/ha, post-emergence, visual assessment 15 DAA, 100%=total damage, 0%=no damage, read-out: Post-emergence herbicidal activity (percentage phytotoxicity) ALOMY POST); 100% in assay [1] (pre-emergence, 480 h, Rate 250 g/ha, pre-emergence, visual assessment 20 DAA, 100%=total damage, 0%=no damage, read-out: Pre-emergence herbicidal activity (percentage phytotoxicity) ALOMY PRE); 100% in assay [2] (post-emergence, 360 h, Rate 250 g/ha, post-emergence, visual assessment 15 DAA, 100%=total damage, 0%=no damage, read-out: Post-emergence herbicidal activity (percentage phytotoxicity) AVEFA POST); 90% in assay [2] (pre-emergence, 480 h, Rate 250 g/ha, pre-emergence, visual assessment 20 DAA, 100%=total damage, 0%=no damage, read-out: Pre-emergence herbicidal activity (percentage phytotoxicity) AVEFA PRE); 100% in assay [3] (post-emergence, 360 h, Rate 250 g/ha, post-emergence, visual assessment 15 DAA, 100%=total damage, 0%=no damage, read-out: Post-emergence herbicidal activity (percentage phytotoxicity) ECHCG POST); 100% in assay [3] (pre-emergence, 480 h, Rate 250 g/ha, pre-emergence, visual assessment 20 DAA, 100%=total damage, 0%=no damage, read-out: Pre-emergence herbicidal activity (percentage phytotoxicity) ECHCG PRE). Moreover, the pest or weed control at 250 g/ha came to 100% in assay [4] (post-emergence, 360 h, Rate 250 g/ha, post-emergence, visual assessment 15 DAA, 100%=total damage, 0%=no damage, read-out: Post-emergence herbicidal activity (percentage phytotoxicity) LOLPE POST) and 100% in assay [4] (pre-emergence, 480 h, Rate 250 g/ha, pre-emergence, visual assessment 20 DAA, 100%=total damage, 0%=no damage, read-out: Pre-emergence herbicidal activity (percentage phytotoxicity) LOLPE PRE).
With `Cc1cc(-c2ncccc2Cl)cc(C)c1C1C(=O)CC(CC(=O)NC(C)(C)C)C1=O` (stereo not shown) [Compound B74], the pest or weed control at 250 g/ha in assay [1] (setting [5]) came out at 60%; in assay [1] (setting [6]) it was 10%; in assay [2] (setting [7]), 60%; in assay [2] (setting [8]), 0%; in assay [3] (setting [9]), 60%; in assay [3] (setting [10]), 10%. Moreover, the pest or weed control at 250 g/ha in assay [4] (setting [11]) was determined as 50%; in assay [4] (setting [12]), 30%.
For `Cc1cc(C)c(C2C(=O)CC(CC(N)=O)C2=O)c(C)c1` (stereo not shown) [Compound B8], the pest or weed control at 250 g/ha in assay [1] (setting [5]) came to 80%; in assay [1] (setting [6]), 80%; in assay [2] (setting [7]), 100%; in assay [2] (setting [8]) it was 90%; in assay [3] (setting [9]), 100%; in assay [3] (setting [10]), 90%. Further, the pest or weed control at 250 g/ha in assay [4] (setting [11]) was determined as 90%; in assay [4] (setting [12]), 100%.
Take `Cc1cc(-c2ncc(F)cn2)cc(C)c1C1C(=O)CC(CC(=O)NC/C=C/Cl)C1=O` (stereo not shown) [Compound B302]: the pest or weed control at 250 g/ha in assay [1] (setting [13]), in assay [1] (setting [14]), in assay [2] (setting [15]), in assay [2] (setting [16]), in assay [3] (setting [17]) and in assay [3] (setting [18]) was 100% in each case. The pest or weed control at 250 g/ha in assay [4] (setting [19]) and in assay [4] (setting [20]) was 100% each time.
With `Cc1cc(-c2ncc(Cl)cc2F)cc(C)c1C1C(=O)CC(CC(=O)NCC2CC2(Cl)Cl)C1=O` (stereo not shown) [Compound B160], the pest or weed control at 250 g/ha was 100% in assay [1] (setting [5]); 90% in assay [1] (setting [6]); 100% in assay [2] (setting [7]); 80% in assay [2] (setting [8]); 100% in assay [3] (setting [9]); 100% in assay [3] (setting [10]). Further, the pest or weed control at 250 g/ha in assay [4] (setting [11]) amounted to 100%; in assay [4] (setting [12]) it was 90%.

The record behind these values is patent US10206394B2, “Herbicidal compounds” (Syngenta Participations AG, priority 2014, dated 2019).
